Assay results: ChEMBL document CHEMBL3885881, “DrugMatrix”

Species: Rattus norvegicus
Assay: DrugMatrix - Regimen: Daily Repeat
Assay type: toxicity, organism-based, Sprague-Dawley
Design: regimen Daily Repeat, gender Male, age 6-8 weeks
Conditions: in vivo, po, route oral GAVAGE, […]; for ABSOLUTE BASOPHIL / ABSOLUTE EOSINOPHIL / ABSOLUTE LYMPHOCYTE / ABSOLUTE MONOCYTE / ABSOLUTE SEGMENTED NEUTROPHIL / BASOPHIL / EOSINOPHIL / ERYTHROCYTE COUNT / HEMATOCRIT / HEMOGLOBIN / LEUKOCYTE COUNT / LYMPHOCYTE / MEAN CORPUSCULAR HEMOGLOBIN / MEAN CORPUSCULAR HEMOGLOBIN CONCENTRATION / MEAN CORPUSCULAR VOLUME / MONOCYTE / NEUTROPHIL / NUCLEATED RED BLOOD CELLS / PLATELET COUNT: tissue Blood; for ALANINE AMINOTRANSFERASE / ALBUMIN / ALKALINE PHOSPHATASE / ASPARTATE AMINOTRANSFERASE / BLOOD UREA NITROGEN / CARBON DIOXIDE / CHLORIDE / CHOLESTEROL / CREATINE PHOSPHOKINASE / CREATININE / GLUCOSE / LACTATE DEHYDROGENASE / LIPASE / PHOSPHORUS / POTASSIUM / SODIUM / TOTAL BILIRUBIN / TOTAL PROTEIN / URIC ACID: tissue Plasma
[1] = 500 mg/kg, 72 h, dose level Low, time 3 day
[2] = 500 mg/kg, 120 h, dose level Low, time 5 day
[3] = 1100 mg/kg, 72 h, dose level High, time 3 day
[4] = 1100 mg/kg, 120 h, dose level High, time 5 day

CCOC(=O)c1ccc(N)cc1 [BENZOCAINE]
ABSOLUTE BASOPHIL [1]: 0 CELLS/uL
ABSOLUTE EOSINOPHIL [1]: 229 CELLS/uL
ABSOLUTE LYMPHOCYTE [1]: 17082.33 CELLS/uL
ABSOLUTE MONOCYTE [1]: 210.67 CELLS/uL
ABSOLUTE SEGMENTED NEUTROPHIL [1]: 1644.67 CELLS/uL
BASOPHIL [1]: 0%
EOSINOPHIL [1]: 1%
ERYTHROCYTE COUNT [1]: 5.35 x10E6/uL
HEMATOCRIT [1]: 35.4%
HEMOGLOBIN [1]: 14.2 G/DL
LEUKOCYTE COUNT [1]: 19.17 x10E3/uL
LYMPHOCYTE [1]: 89.33%
MEAN CORPUSCULAR HEMOGLOBIN [1]: 26.5 pg
MEAN CORPUSCULAR HEMOGLOBIN CONCENTRATION [1]: 40.13 G/DL
MEAN CORPUSCULAR VOLUME [1]: 66.13 fL
MONOCYTE [1]: 1%
NEUTROPHIL [1]: 8.67%
NUCLEATED RED BLOOD CELLS [1]: 0 /100WBC
PLATELET COUNT [1]: 1441 x10E3/uL
ALANINE AMINOTRANSFERASE [1]: 64 u/L
ALBUMIN [1]: 4.2 G/DL
ALKALINE PHOSPHATASE [1]: 444.67 u/L
ASPARTATE AMINOTRANSFERASE [1]: 108.33 u/L
BLOOD UREA NITROGEN [1]: 9.67 mg/dL
CARBON DIOXIDE [1]: 29 mmol/L
CHLORIDE [1]: 102.33 MEQ/L
CHOLESTEROL [1]: 59.33 mg/dL
CREATINE PHOSPHOKINASE [1]: 648.33 u/L
CREATININE [1]: 0.35 mg/dL
GLUCOSE [1]: 175.67 mg/dL
LACTATE DEHYDROGENASE [1]: 218.67 u/L
LIPASE [1]: 12.33 u/L
PHOSPHORUS [1]: 12.33 mg/dL
POTASSIUM [1]: 6.58 MEQ/L
SODIUM [1]: 144.73 MEQ/L
TOTAL BILIRUBIN [1]: 0.2 mg/dL
TOTAL PROTEIN [1]: 5.7 G/DL
URIC ACID [1]: 1.73 mg/dL
ABSOLUTE BASOPHIL [2]: 0 CELLS/uL
ABSOLUTE EOSINOPHIL [2]: 0 CELLS/uL
ABSOLUTE LYMPHOCYTE [2]: 16058.33 CELLS/uL
ABSOLUTE MONOCYTE [2]: 107.33 CELLS/uL
ABSOLUTE SEGMENTED NEUTROPHIL [2]: 2201 CELLS/uL
BASOPHIL [2]: 0%
EOSINOPHIL [2]: 0%
ERYTHROCYTE COUNT [2]: 4.82 x10E6/uL
HEMATOCRIT [2]: 32.4%
HEMOGLOBIN [2]: 13.2 G/DL
LEUKOCYTE COUNT [2]: 18.37 x10E3/uL
LYMPHOCYTE [2]: 87%
MEAN CORPUSCULAR HEMOGLOBIN [2]: 27.47 pg
MEAN CORPUSCULAR HEMOGLOBIN CONCENTRATION [2]: 40.77 G/DL
MEAN CORPUSCULAR VOLUME [2]: 67.4 fL
MONOCYTE [2]: 0.67%
NEUTROPHIL [2]: 12.33%
NUCLEATED RED BLOOD CELLS [2]: 0.67 /100WBC
PLATELET COUNT [2]: 1368 x10E3/uL
ALANINE AMINOTRANSFERASE [2]: 53.67 u/L
ALBUMIN [2]: 4.13 G/DL
ALKALINE PHOSPHATASE [2]: 386 u/L
ASPARTATE AMINOTRANSFERASE [2]: 98 u/L
BLOOD UREA NITROGEN [2]: 13 mg/dL
CARBON DIOXIDE [2]: 29 mmol/L
CHLORIDE [2]: 104.33 MEQ/L
CHOLESTEROL [2]: 48.33 mg/dL
CREATINE PHOSPHOKINASE [2]: 364.67 u/L
CREATININE [2]: 0.17 mg/dL
GLUCOSE [2]: 150 mg/dL
LACTATE DEHYDROGENASE [2]: 646.67 u/L
LIPASE [2]: 11 u/L
PHOSPHORUS [2]: 10.6 mg/dL
POTASSIUM [2]: 6.6 MEQ/L
SODIUM [2]: 143.27 MEQ/L
TOTAL BILIRUBIN [2]: 0.3 mg/dL
TOTAL PROTEIN [2]: 5.77 G/DL
URIC ACID [2]: 1.63 mg/dL
ABSOLUTE BASOPHIL [3]: 0 CELLS/uL
ABSOLUTE EOSINOPHIL [3]: 55.33 CELLS/uL
ABSOLUTE LYMPHOCYTE [3]: 17429 CELLS/uL
ABSOLUTE MONOCYTE [3]: 386.67 CELLS/uL
ABSOLUTE SEGMENTED NEUTROPHIL [3]: 3095.67 CELLS/uL
BASOPHIL [3]: 0%
EOSINOPHIL [3]: 0.33%
ERYTHROCYTE COUNT [3]: 4.95 x10E6/uL
HEMATOCRIT [3]: 33.3%
HEMOGLOBIN [3]: 13.8 G/DL
LEUKOCYTE COUNT [3]: 20.97 x10E3/uL
LYMPHOCYTE [3]: 81.67%
MEAN CORPUSCULAR HEMOGLOBIN [3]: 27.93 pg
MEAN CORPUSCULAR HEMOGLOBIN CONCENTRATION [3]: 41.43 G/DL
MEAN CORPUSCULAR VOLUME [3]: 67.4 fL
MONOCYTE [3]: 1.33%
NEUTROPHIL [3]: 16.67%
NUCLEATED RED BLOOD CELLS [3]: 0.33 /100WBC
PLATELET COUNT [3]: 1424.33 x10E3/uL
ALANINE AMINOTRANSFERASE [3]: 72 u/L
ALBUMIN [3]: 4.03 G/DL
ALKALINE PHOSPHATASE [3]: 546.33 u/L
ASPARTATE AMINOTRANSFERASE [3]: 93.33 u/L
BLOOD UREA NITROGEN [3]: 10.33 mg/dL
CARBON DIOXIDE [3]: 31 mmol/L
CHLORIDE [3]: 104.33 MEQ/L
CHOLESTEROL [3]: 61 mg/dL
CREATINE PHOSPHOKINASE [3]: 361.67 u/L
CREATININE [3]: 0.14 mg/dL
GLUCOSE [3]: 138.67 mg/dL
LACTATE DEHYDROGENASE [3]: 171 u/L
LIPASE [3]: 11.33 u/L
PHOSPHORUS [3]: 11.13 mg/dL
POTASSIUM [3]: 6.37 MEQ/L
SODIUM [3]: 144.8 MEQ/L
TOTAL BILIRUBIN [3]: 0.3 mg/dL
TOTAL PROTEIN [3]: 5.57 G/DL
URIC ACID [3]: 1.27 mg/dL
ABSOLUTE BASOPHIL [4]: 0 CELLS/uL
ABSOLUTE EOSINOPHIL [4]: 0 CELLS/uL
ABSOLUTE LYMPHOCYTE [4]: 14423.33 CELLS/uL
ABSOLUTE MONOCYTE [4]: 145 CELLS/uL
ABSOLUTE SEGMENTED NEUTROPHIL [4]: 2531.67 CELLS/uL
BASOPHIL [4]: 0%
EOSINOPHIL [4]: 0%
ERYTHROCYTE COUNT [4]: 4.51 x10E6/uL
HEMATOCRIT [4]: 32.4%
HEMOGLOBIN [4]: 13.97 G/DL
LEUKOCYTE COUNT [4]: 17.1 x10E3/uL
LYMPHOCYTE [4]: 84.33%
MEAN CORPUSCULAR HEMOGLOBIN [4]: 31.07 pg
MEAN CORPUSCULAR HEMOGLOBIN CONCENTRATION [4]: 43.13 G/DL
MEAN CORPUSCULAR VOLUME [4]: 71.97 fL
MONOCYTE [4]: 1%
NEUTROPHIL [4]: 14.67%
NUCLEATED RED BLOOD CELLS [4]: 1.33 /100WBC
PLATELET COUNT [4]: 1244.67 x10E3/uL
ALANINE AMINOTRANSFERASE [4]: 56.67 u/L
ALBUMIN [4]: 4.2 G/DL
ALKALINE PHOSPHATASE [4]: 347.67 u/L
ASPARTATE AMINOTRANSFERASE [4]: 84 u/L
BLOOD UREA NITROGEN [4]: 13.33 mg/dL
CARBON DIOXIDE [4]: 32.67 mmol/L
CHLORIDE [4]: 102.33 MEQ/L
CHOLESTEROL [4]: 58 mg/dL
CREATINE PHOSPHOKINASE [4]: 180 u/L
CREATININE [4]: 0.13 mg/dL
GLUCOSE [4]: 145.33 mg/dL
LACTATE DEHYDROGENASE [4]: 146.67 u/L
LIPASE [4]: 11 u/L
PHOSPHORUS [4]: 11.13 mg/dL
POTASSIUM [4]: 6.79 MEQ/L
SODIUM [4]: 143.83 MEQ/L
TOTAL BILIRUBIN [4]: 0.37 mg/dL
TOTAL PROTEIN [4]: 5.9 G/DL
URIC ACID [4]: 1.53 mg/dL
